This is an account of results in patent US9481670B2, “Triazine compounds” (Sphaera Pharma PTE. Ltd., priority 2011, dated 2016).

T1 sequence (P42336 whole entry): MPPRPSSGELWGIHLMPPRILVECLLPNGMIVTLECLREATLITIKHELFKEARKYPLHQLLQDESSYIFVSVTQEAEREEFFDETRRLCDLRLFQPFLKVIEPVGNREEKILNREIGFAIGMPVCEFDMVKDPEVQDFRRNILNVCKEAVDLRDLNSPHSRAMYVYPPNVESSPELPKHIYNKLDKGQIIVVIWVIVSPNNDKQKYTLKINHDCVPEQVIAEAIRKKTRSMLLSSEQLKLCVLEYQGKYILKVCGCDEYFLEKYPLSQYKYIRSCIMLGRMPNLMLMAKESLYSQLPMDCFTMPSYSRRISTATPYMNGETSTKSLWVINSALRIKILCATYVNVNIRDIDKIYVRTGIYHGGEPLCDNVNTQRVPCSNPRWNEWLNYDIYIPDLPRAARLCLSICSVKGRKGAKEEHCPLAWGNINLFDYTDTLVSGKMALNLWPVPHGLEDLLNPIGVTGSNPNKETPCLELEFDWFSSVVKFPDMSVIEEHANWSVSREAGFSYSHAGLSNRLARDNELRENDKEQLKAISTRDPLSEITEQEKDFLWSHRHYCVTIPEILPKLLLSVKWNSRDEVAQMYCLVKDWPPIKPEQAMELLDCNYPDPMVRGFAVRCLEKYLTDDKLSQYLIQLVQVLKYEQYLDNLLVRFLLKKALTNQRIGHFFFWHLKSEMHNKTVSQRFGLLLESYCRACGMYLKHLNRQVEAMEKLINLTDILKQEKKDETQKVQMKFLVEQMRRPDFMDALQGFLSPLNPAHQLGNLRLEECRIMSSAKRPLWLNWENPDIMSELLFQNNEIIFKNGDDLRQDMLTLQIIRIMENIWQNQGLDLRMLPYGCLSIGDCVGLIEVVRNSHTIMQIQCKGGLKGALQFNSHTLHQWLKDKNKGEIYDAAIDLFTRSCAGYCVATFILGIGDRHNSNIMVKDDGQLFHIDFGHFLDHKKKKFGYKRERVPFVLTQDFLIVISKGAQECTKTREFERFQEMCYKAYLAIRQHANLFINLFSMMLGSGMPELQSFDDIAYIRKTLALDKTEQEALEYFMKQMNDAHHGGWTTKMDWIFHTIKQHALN
T1 sequence (P27986 whole entry partner): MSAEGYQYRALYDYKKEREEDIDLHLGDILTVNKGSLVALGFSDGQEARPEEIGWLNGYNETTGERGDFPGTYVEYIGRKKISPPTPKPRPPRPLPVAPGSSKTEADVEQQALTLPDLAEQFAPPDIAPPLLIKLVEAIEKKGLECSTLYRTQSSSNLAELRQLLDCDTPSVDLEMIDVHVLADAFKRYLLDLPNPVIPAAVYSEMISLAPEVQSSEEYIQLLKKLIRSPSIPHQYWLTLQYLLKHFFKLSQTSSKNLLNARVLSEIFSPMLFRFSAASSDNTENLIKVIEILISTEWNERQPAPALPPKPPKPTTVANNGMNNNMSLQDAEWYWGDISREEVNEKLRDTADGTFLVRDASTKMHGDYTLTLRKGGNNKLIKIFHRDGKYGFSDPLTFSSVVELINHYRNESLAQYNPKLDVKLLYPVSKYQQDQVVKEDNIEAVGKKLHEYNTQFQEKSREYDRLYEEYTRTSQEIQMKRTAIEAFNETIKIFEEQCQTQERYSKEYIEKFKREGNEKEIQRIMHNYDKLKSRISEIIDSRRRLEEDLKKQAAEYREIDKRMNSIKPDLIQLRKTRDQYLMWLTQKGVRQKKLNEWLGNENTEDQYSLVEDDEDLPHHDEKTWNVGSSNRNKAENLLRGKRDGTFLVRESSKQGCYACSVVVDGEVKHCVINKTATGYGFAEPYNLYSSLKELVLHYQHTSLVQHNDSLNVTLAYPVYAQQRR

This assay concerns the target T1, PI3K alpha (Homo sapiens, UniProt P42336).
T1 construct: purchased Millipore Upstate
The experiment in a line: P110 Alpha TR-FRET Assay (PI3K alpha kinase assay, HTRF Transcreener ADP Assay). The format is biochemical. Particulars: PI3K (WT). The method, boiled down:
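HTRF Transcreener ADP read-out of ADP formed by PI3K (50 ng enzyme) in 50 mM HEPES pH 7.5, 5 mM MgCl2, 1 mM DTT, 30 μM Na3VO4. Compound preincubated with enzyme 20 min; reaction started with 10 μM ATP and 5 μM PIP2, run 20 min, then ADP-d2/anti-ADP cryptate detection for 1 h.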
As usually defined, the IC50 is the concentration needed to halve the response being measured. `CN(C)C(=O)CNc1nc(-c2cccc(C(N)=O)c2)nc(N2CCOCC2)n1` [Compound 1122, 3-12-(4-0-{[(dimethylcarbamoyl)methyl]amino}-6-4-(morpholin-4-yl)-1,3,5-triazin-2-yl)benzamide] had a 50% inhibitory concentration (IC50) greater than 5 µM. With `CNC(=O)C(=O)N[C@H]1CC[C@H](Oc2nc(-c3cccc4[nH]ncc34)nc(N3CCOCC3)n2)CC1` [Compound 1124, N-methyl-N′-[(1r,4r)-4-9-{[4-1-(1H-indazol-4-yl)-6-5-(morpholin-4-yl)-1,3,5-triazin-2-yl]oxy}cyclohexyl]ethanediamide], the IC50 was less than 5 µM. For `CN(C)C(=O)C(=O)N[C@H]1CC[C@H](Oc2nc(-c3cccc4[nH]ncc34)nc(N3CCOCC3)n2)CC1` [Compound 1125, N,N-dimethyl-N′-[(1r,4r)-4-9-{[4-1-(1H-indazol-4-yl)-6-5-(morpholin-4-yl)-1,3,5-triazin-2-yl]oxy}cyclohexyl]ethanediamide], the concentration for half-maximal inhibition (IC50) was less than 5 µM.

`Fc1ccc(-c2nc(N3CCNCC3)nc(N3CCOCC3)n2)cn1` [Compound 1127, 2-1-(6-16-fluoropyridin-3-yl)-4-5-(morpholin-4-yl)-6-3-(piperazin-1-yl)-1,3,5-triazine] yielded an IC50 of less than 5 µM. `COc1cccc(-c2nc(N)nc(N3CCOCC3)n2)c1` [Compound 1128, 4-4-(3-13-methoxyphenyl)-6-0-(morpholin-4-yl)-1,3,5-triazin-2-amine] registered an IC50 greater than 5 µM. As to `O=C(Nc1ccccn1)c1cccc(Nc2nc(-c3cccc4[nH]ncc34)nc(N3CCOCC3)n2)c1` [Compound 1129, 3-((4-(1H-indazol-4-yl)-6-morpholino-1,3,5-triazin-2-yl)amino)-N-(pyridin-2-yl)benzamide], the half-maximal inhibitory concentration (IC50) was less than 5 µM.

Compound `CS(=O)(=O)N1CCN(C(=O)c2cccc(Nc3nc(-c4cccc5[nH]ncc45)nc(N4CCOCC4)n3)c2)CC1` [Compound 1130, (3-((4-(1H-indazol-4-yl)-6-morpholino-1,3,5-triazin-2-yl)amino)phenyl)(4-(methylsulfonyl)piperazin-1-yl)methanone] returned an IC50 of less than 5 µM. For the compound `N#Cc1cccc(Oc2nc(-c3cccc4[nH]ncc34)nc(N3CCOCC3)n2)c1` [Compound 1131, 3-22-{[4-1-(1H-indazol-4-yl)-6-5-(morpholin-4-yl)-1,3,5-triazin-2-yl]oxy}benzonitrile], the IC50 was greater than 5 µM. The same measure for `CN(C)C(=O)c1sccc1Nc1nc(-c2cccc3[nH]ncc23)nc(N2CCOCC2)n1` [Compound 1132, 3-((4-(1H-indazol-4-yl)-6-morpholino-1,3,5-triazin-2-yl)amino)-N,N-dimethylthiophene-2-carboxamide]: less than 5 µM; for `CN(C)C(=O)[C@@H]1CCC[C@@H](Oc2nc(-c3cccc4[nH]ncc34)nc(N3CCOCC3)n2)C1` [Compound 1133, (1R,3R)-3-14-{[4-1-(1H-indazol-4-yl)-6-5-(morpholin-4-yl)-1,3,5-triazin-2-yl]oxy}-N,N-dimethylcyclohexane-1-carboxamide]: less than 5 µM. The same measure for `Nc1ccc(-c2nc(N3CCNCC3)nc(N3CCOCC3)n2)cn1` [Compound 1134, 5-18-[4-5-(morpholin-4-yl)-6-3-(piperazin-1-yl)-1,3,5-triazin-2-yl]pyridin-2-amine]: less than 5 µM; for `NC(=O)CNc1nc(-c2cccc(C(N)=O)c2)nc(N2CCOCC2)n1` [Compound 1135, 3-6-{4-1-[(carbamoylmethyl)amino]-6-2-(morpholin-4-yl)-1,3,5-triazin-2-yl}benzamide]: greater than 5 µM. `CSCCC(Nc1nc(-c2cccc(O)c2)nc(N2CCOCC2)n1)C(=O)O` (centres unmarked) [Compound 1136, 2-((4-(3-hydroxyphenyl)-6-morpholino-1,3,5-triazin-2-yl)amino)-4-(methylthio)butanoic acid] showed an IC50 of less than 5 µM. On to `CN(C)C(=O)CNc1nc(-c2cccc(C(F)F)c2)nc(N2CCOCC2)n1` [Compound 1137, 2-((4-(3-(difluoromethyl)phenyl)-6-morpholino-1,3,5-triazin-2-yl)amino)-N,N-dimethylacetamide], for which the IC50 is greater than 5 µM.

With `CC(Nc1nc(-c2cccc(NS(C)(=O)=O)c2)nc(N2CCOCC2)n1)C(=O)O` (centres unmarked) [Compound 1138, 2-((4-(3-(methylsulfonamido)phenyl)-6-morpholino-1,3,5-triazin-2-yl)amino)propanoic acid], the IC50 was greater than 5 µM. `Nc1nc(-c2cccc(O)c2)nc(N2CCOCC2)n1` [Compound 1139, 3-8-[4-3-amino-6-5-(morpholin-4-yl)-1,3,5-triazin-2-yl]phenol] gave an IC50 of less than 5 µM. `COC1CCN(C(=O)c2cccc(Nc3nc(-c4cccc5[nH]ncc45)nc(N4CCOCC4)n3)c2)CC1` [Compound 1140, (3-((4-(1H-indazol-4-yl)-6-morpholino-1,3,5-triazin-2-yl)amino)phenyl)(4-methoxypiperidin-1-yl)methanone] registered a half-inhibitory concentration (IC50) of less than 5 µM. The compound `CN(C)C(=O)CNc1nc(-c2cccc(C#N)c2)nc(N2CCOCC2)n1` [Compound 1141, 2-((4-(3-cyanophenyl)-6-morpholino-1,3,5-triazin-2-yl)amino)-N,N-dimethylacetamide] returned an IC50 greater than 5 µM. Compound `CNC(=O)[C@H]1CC[C@H](Oc2nc(-c3cccc4[nH]ncc34)nc(N3CCOCC3)n2)CC1` [Compound 1142, (1r,4r)-4-21-{[4-1-(1H-indazol-4-yl)-6-5-(morpholin-4-yl)-1,3,5-triazin-2-yl]oxy}-N-methylcyclohexane-1-carboxamide] showed an IC50 of less than 5 µM. In the case of `CN(C)C(=O)[C@H]1CC[C@@H](Oc2nc(-c3cccc4[nH]ncc34)nc(N3CCOCC3)n2)CC1` [Compound 1143, (1s,4s)-4-21-{[4-1-(1H-indazol-4-yl)-6-5-(morpholin-4-yl)-1,3,5-triazin-2-yl]oxy}-N,N-dimethylcyclohexane-1-carboxamide], the IC50 was less than 5 µM. `CN(C)C(=O)CNc1nc(-c2ccc(O)nc2)nc(N2CCOCC2)n1` [Compound 1145, 2-((4-(6-hydroxypyridin-3-yl)-6-morpholino-1,3,5-triazin-2-yl)amino)-N,N-dimethylacetamide] had an IC50 of less than 5 µM. On to `CS(=O)(=O)Nc1cccc(-c2nc(NCC(=O)O)nc(N3CCOCC3)n2)c1` [Compound 1146, 2-((4-(3-(methylsulfonamido)phenyl)-6-morpholino-1,3,5-triazin-2-yl)amino)acetic acid], for which the IC50 is greater than 5 µM. In the case of `CN(C)C(=O)NC(C)(C)COc1nc(-c2cccc3[nH]ncc23)nc(N2CCOCC2)n1` [Compound 1147, 1-(1-14-{[4-1-(1H-indazol-4-yl)-6-5-(morpholin-4-yl)-1,3,5-triazin-2-yl]oxy}-2-15-methylpropan-2-yl)-3,3-dimethylurea], the IC50 is less than 5 µM.

`CCN1CCC(Oc2nc(-c3cccc4[nH]ncc34)nc(N3CCOCC3)n2)CC1` [Compound 1149, 4-7-{4-3-[(1-25-ethylpiperidin-4-yl)oxy]-6-5-(morpholin-4-yl)-1,3,5-triazin-2-yl}-1H-indazole] gave an IC50 of less than 5 µM. In the case of `CN(C)C(=O)CNc1nc(-c2cncc(O)c2)nc(N2CCOCC2)n1` [Compound 1150, 2-((4-(5-hydroxypyridin-3-yl)-6-morpholino-1,3,5-triazin-2-yl)amino)-N,N-dimethylacetamide], the IC50 is less than 5 µM.

With `c1cc(-c2nc(OC3CCNCC3)nc(N3CCOCC3)n2)c2cn[nH]c2c1` [Compound 1151, 4-7-[4-5-(morpholin-4-yl)-6-3-(piperidin-4-yloxy)-1,3,5-triazin-2-yl]-1H-indazole], the IC50 was less than 5 µM.

As for `N[C@H]1CC[C@H](Oc2nc(-c3cccc4[nH]ncc34)nc(N3CCOCC3)n2)CC1` [Compound 1152, (1r,4r)-4-9-{[4-1-(1H-indazol-4-yl)-6-5-(morpholin-4-yl)-1,3,5-triazin-2-yl]oxy}cyclohexan-1-amine], the IC50 was less than 5 µM. Turning to `O=C(O)C1(Nc2nc(-c3cccc(O)c3)nc(N3CCOCC3)n2)CCCC1` [Compound 1153, 1-((4-(3-hydroxyphenyl)-6-morpholino-1,3,5-triazin-2-yl)amino)cyclopentanecarboxylic acid], the IC50 was less than 5 µM.

Regarding `NC(=O)C1CN(C(=O)c2cccc(Nc3nc(-c4cccc5[nH]ncc45)nc(N4CCOCC4)n3)c2)C1` [Compound 1154, 1-(3-((4-(1H-indazol-4-yl)-6-morpholino-1,3,5-triazin-2-yl)amino)benzoyl)azetidine-3-carboxamide], the IC50 is less than 5 µM. The same measure for `CC(C)(CO)Nc1nc(-c2cccc(O)c2)nc(N2CCOCC2)n1` [Compound 1155, 3-6-{4-3-[(1-hydroxy-2-methylpropan-2-yl)amino]-6-5-(morpholin-4-yl)-1,3,5-triazin-2-yl}phenol]: less than 5 µM; for `COc1ccc(F)c(-c2nc(NCC(=O)O)nc(N3CCOCC3)n2)c1` [Compound 1156, 2-((4-(2-fluoro-5-methoxyphenyl)-6-morpholino-1,3,5-triazin-2-yl)amino)acetic acid]: greater than 5 µM; for `O=C(NC1CCNCC1)c1cccc(Nc2nc(-c3cccc4[nH]ncc34)nc(N3CCOCC3)n2)c1` [Compound 1157, 3-((4-(1H-indazol-4-yl)-6-morpholino-1,3,5-triazin-2-yl)amino)-N-(piperidin-4-yl)benzamide]: less than 5 µM. The result for `NC(=O)c1sccc1Nc1nc(-c2cccc3[nH]ncc23)nc(N2CCOCC2)n1` [Compound 1158, 3-((4-(1H-indazol-4-yl)-6-morpholino-1,3,5-triazin-2-yl)amino)thiophene-2-carboxamide] reads less than 5 µM; that for `Oc1cccc(-c2nc(N3CCOCC3)nc(N3CCOCC3)n2)c1` [Compound 1160, 3-6-[4-1,6-2-bis(morpholin-4-yl)-1,3,5-triazin-2-yl]phenol], less than 5 µM; that for `O=C(O)CNc1nc(-c2cccc(C(=O)O)c2)nc(N2CCOCC2)n1` [Compound 1161, 3-6-{4-1-[(carboxymethyl)amino]-6-2-(morpholin-4-yl)-1,3,5-triazin-2-yl}benzoic acid], greater than 5 µM.
